This is an account of results in article PMC8587849, “Antimicrobial and Anticancer Application of Silver(I) Dipeptide Complexes” (Molecules, 2021).

Test [1] relates to Candida parapsilosis ATCC 22019. The test is described as follows: Antifungal activity (yeast), macrodilution method. The format is cell-based. As to conditions: C. parapsilosis.
Description: (§3) Cultures of bacteria (in Mueller-Hinton broth, MHB) and yeasts (in Sabouraud’s growth medium, SB) were incubated under shaking (250 rpm) at 37 °C. The growth of bacteria and yeasts was evaluated by measuring the absorbance of the growing cultures (A550) until the cultures reached the stationary growth phase. […] The final concentration of DMSO never exceeded 1.0 vol. % in the control or treated samples. […] The IC50 and MIC90 with respect to MIC80 values were evaluated from toxicity curves.
The next test has as its system MCF-7. The test is described as follows: MTS antiproliferative assay. The format is cell-based, human. As to conditions: 72 h. On the procedure: (§1) After 72 h of incubation, 10 µL of MTS was added to each well. […] IC50 values were calculated from MTS analyses.
A further test relates to HeLa. The test is described as follows: MTS antiproliferative assay. The format is cell-based, human. As to conditions: 72 h. On the procedure: as §1
A general note: Tetrazolium assays rely on reduction of a dye to a coloured formazan, in cell work by metabolically active cells.

A further test relates to BJ-5ta. Description: MTS assay on fibroblasts. The format is cell-based. Conditions: BJ-5ta human skin fibroblasts, 72 h. On the procedure:
as §1

Test [2] deals with Alternaria alternata CCM F-128. The test is described as follows: Antifungal activity (filamentous fungi), macrodilution on solidified PDA. The format is cell-based. As to conditions: A. alternata, read-out: IC50 and MIC100 (class symbol).
Description: (§4) Cultures of bacteria (in Mueller-Hinton broth, MHB) and yeasts (in Sabouraud’s growth medium, SB) were incubated under shaking (250 rpm) at 37 °C. The growth of bacteria and yeasts was evaluated by measuring the absorbance of the growing cultures (A550) until the cultures reached the stationary growth phase. […] During culturing, the diameters of growing fungal colonies were measured at regular intervals [71, 72]. […] The final concentration of DMSO never exceeded 1.0 vol. % in the control or treated samples. […] The IC50 and MIC90 with respect to MIC80 values were evaluated from toxicity curves.
A further test deals with HCT116. The test is described as follows: MTS antiproliferative assay. The format is cell-based, human. As to conditions: 72 h. On the procedure:
(§2) Cells were maintained in standard conditions with an atmosphere containing 5% CO2 at 37 °C.
as §1

Another test deals with MDA-MB-231. The test is described as follows: MTS antiproliferative assay. The format is cell-based, human. Conditions: 72 h. On the procedure:
as §2, §1

In a further test the test system is BLM. Description: MTS antiproliferative assay. The format is cell-based, human. As to conditions: BLM; MTS, 72 h. On the procedure: as §2, §1
In the next test the test system is Jurkat. Description: MTS antiproliferative assay. The format is cell-based, human. As to conditions: 72 h. On the procedure: as §2, §1
A further test concerns A.flavus. The test is described as follows: Antifungal activity (filamentous fungi). The format is cell-based. As to conditions: read-out: IC50 and MIC100 (class symbol).
Test [3] deals with Microsporum gypseum CCM F-8342. The test is described as follows: Antifungal activity (filamentous fungi), macrodilution on solidified PDA. The format is cell-based. Conditions: M.gypseum, read-out: IC50 and MIC100 (class symbol).
Description: as §4
Test [4] has as its system Rhizopus oryzae CCM F-8284. The test is described as above. The format is cell-based.
Description: as §4
Test [5] concerns Staphylococcus epidermidis CCM 7221. The test is described as follows: Antibacterial activity, macrodilution method. As to conditions: S.epidermidis; free ligands. The format is cell-based.
Description: as §3
The test system of test [6] is Staphylococcus aureus CCM 3953. Description: Antibacterial activity, macrodilution method. The format is cell-based. Conditions: S. aureus; free ligands.
Description: as §3
The test system of test [7] is Escherichia coli (E. coli) CCM 3988. Description: Antibacterial activity, macrodilution method. Conditions: free ligands. The format is cell-based.
Description: as §3
Test [8] concerns methicillin-resistant Staphylococcus aureus L12. Description: Antibacterial activity, macrodilution method. The format is cell-based. As to conditions: S. aureus L12; free ligands.
Description: as §3
In the next test the test system is Candida albicans SC 5314. The test is described as follows: Antifungal activity (yeast), macrodilution method. The format is cell-based. Conditions: C. albicans.
[9] abbreviates: read-out: IC50 and MIC100 (class symbol).

As usually defined, the IC50 is the point on the concentration scale where inhibition reaches its midpoint.

Like-named read-outs stand apart in the source and are kept apart here. Where a SMILES comes first, the peptide text is derived from it.

Description for A.flavus: as §4
Description for Candida albicans SC 5314: as §4

As to `NCC(=O)N[C@@H](CC(=O)O)C(=O)O` [H2GlyAsp, Glycyl-L-Aspartic acid, reference compound] (H-Gly-Asp-OH), the “IC50 and MIC80 (class symbol)” value in [1] was “N (N- not active IC50 and MIC values > 2 mmol.l-1)”; in the test on Candida albicans SC 5314, “N (N- not active IC50 and MIC values > 2 mmol.l-1)”. The IC50 with MCF-7 was > 300 µM; with HeLa it was > 300 µM; in the test with BJ-5ta it was > 300 µM; in test [2] it was > 2 mM; in the test on HCT116, > 300 µM; in the test with MDA-MB-231, > 300 µM. Also, the IC50 is > 300 µM in the test on BLM; > 300 µM in the test on Jurkat; > 2 mM in the test on A.flavus; > 2 mM in [3]; > 2 mM in [4] (setting [9]). For the same compound, the “IC50 and MIC90 (class symbol)” value in [5] was “N (N- not active IC50 and MIC90 values > 2 mmol.l-1)”; in test [6], “N (N- not active IC50 and MIC90 values > 2 mmol.l-1)”; in test [7] it was “N (N- not active IC50 and MIC90 values > 2 mmol.l-1)”; in test [8], “N (N- not active IC50 and MIC90 values > 2 mmol.l-1)”.

Regarding `NCC(=O)NCC(=O)O` [HGlyGly, Glycyl-L-Glycine, reference compound] (H-Gly-Gly-OH), the “IC50 and MIC80 (class symbol)” value in test [1] is “N (N- not active IC50 and MIC values > 2 mmol.l-1)”; with Candida albicans SC 5314, “N (N- not active IC50 and MIC values > 2 mmol.l-1)”. For the same compound, the IC50 (in test [2]; in the test on A.flavus; in test [3]; in test [4] (setting [9])) was > 2 mM each time. Moreover, the “IC50 and MIC90 (class symbol)” value is “N (N- not active IC50 and MIC90 values > 2 mmol.l-1)” in test [5]; “N (N- not active IC50 and MIC90 values > 2 mmol.l-1)” in test [6]; “N (N- not active IC50 and MIC90 values > 2 mmol.l-1)” in test [7]; “N (N- not active IC50 and MIC90 values > 2 mmol.l-1)” in test [8].

As to `C[C@H](NC(=O)CN)C(=O)O` [HGlyAla, Glycyl-L-Alanine, reference compound] (H-Gly-Ala-OH), the “IC50 and MIC80 (class symbol)” value is “N (N- not active IC50 and MIC values > 2 mmol.l-1)” in test [1]; “N (N- not active IC50 and MIC values > 2 mmol.l-1)” with Candida albicans SC 5314. The IC50 is > 300 µM in the test with MCF-7; > 300 µM in the test with HeLa; > 300 µM with BJ-5ta; > 2 mM in test [2]; > 300 µM with HCT116; > 300 µM in the test on MDA-MB-231. The 50% inhibitory concentration (IC50) with BLM is > 300 µM; with Jurkat it was > 300 µM; in the test with A.flavus, > 2 mM; in test [3], > 2 mM; in test [4] (setting [9]), > 2 mM. The “IC50 and MIC90 (class symbol)” value in test [5] was “N (N- not active IC50 and MIC90 values > 2 mmol.l-1)”; in test [6], “N (N- not active IC50 and MIC90 values > 2 mmol.l-1)”; in [7] it was “N (N- not active IC50 and MIC90 values > 2 mmol.l-1)”; in test [8] it was “N (N- not active IC50 and MIC90 values > 2 mmol.l-1)”.

As for `NCC(=O)O` [Gly, glycine, reference compound], the “IC50 and MIC80 (class symbol)” value in [1] is “N (N- not active IC50 and MIC values > 2 mmol.l-1)”; in the test with Candida albicans SC 5314 it was “N (N- not active IC50 and MIC values > 2 mmol.l-1)”. For the same compound, the IC50 (in [2]; with A.flavus; in test [3]; in test [4] (setting [9])) was > 2 mM in each case. Besides, the “IC50 and MIC90 (class symbol)” value in test [5] is “N (N- not active IC50 and MIC90 values > 2 mmol.l-1)”; in test [6] it was “N (N- not active IC50 and MIC90 values > 2 mmol.l-1)”; in test [7], “N (N- not active IC50 and MIC90 values > 2 mmol.l-1)”; in test [8], “N (N- not active IC50 and MIC90 values > 2 mmol.l-1)”.

Consider `C[C@H](N)C(=O)O` [Ala, alanine, reference compound], for which the “IC50 and MIC80 (class symbol)” value in test [1] is “N (N- not active IC50 and MIC values > 2 mmol.l-1)”; in the test with Candida albicans SC 5314, “N (N- not active IC50 and MIC values > 2 mmol.l-1)”. For the same compound, the IC50 in [2] (Alternaria alternata, CCMF128) is > 2 mM; in the test on A.flavus (Aspergillus flavus), > 2 mM; in [3] (Nannizzia gypsea, CCMF8342) it was > 2 mM; in test [4] (Rhizopus arrhizus, CCMF8284, read-out: IC50 and MIC100 (class symbol)), > 2 mM. Also, the “IC50 and MIC90 (class symbol)” value in [5] is “N (N- not active IC50 and MIC90 values > 2 mmol.l-1)”; in test [6], “N (N- not active IC50 and MIC90 values > 2 mmol.l-1)”; in test [7], “N (N- not active IC50 and MIC90 values > 2 mmol.l-1)”; in [8] it was “N (N- not active IC50 and MIC90 values > 2 mmol.l-1)”.

Turning to `N.N.[Cl][Pt][Cl]` [cisPt, cisplatin], the half-maximal inhibitory concentration (IC50) in the test with MCF-7 worked out at 29.7 µM; in the test with HeLa, 35.4 µM; in the test with BJ-5ta it was 37.9 µM; in the test with HCT116, 7.4 µM; with MDA-MB-231, 7.1 µM; in the test on BLM, 29.5 µM. The same compound registered an IC50 in the test with Jurkat of 6.3 µM.

For `O=[N+]([O-])[O-].[Ag+]` [AgNO3, silver(I) nitrate], the 50% inhibitory concentration (IC50) in the test with MCF-7 worked out at 13.2 µM; in the test with HeLa, 45.3 µM; with BJ-5ta, 24.3 µM; in the test on HCT116, 21.8 µM; in the test on MDA-MB-231, 25.9 µM; in the test with BLM it was 31.5 µM. This compound also yielded an IC50 in the test on Jurkat of 6.6 µM.
